Like-named read-outs stand apart in the source and are kept apart here.
How the values were obtained:
DGKα = DGKα (Homo sapiens (Human), UniProt P23743); experiment: Biochemical DGK IC50 assay, DGKα ADP-Glo assay; conditions: 7.5 nM enzyme, 140 μM ATP, 80 μM DAG
Summary of the method: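 Compounds at final 1.55˜10000 nM or 23.3˜150000 nM were tested against full-length DGKα. Substrate was lipid micelles of DAG and PS resuspended in 25 mM HEPES pH 7.0 with 0.5 mM EDTA and 160 mM octyl β-D-glucopyranoside. ADP formed was detected by ADP-Glo.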

DGKζ = DGKζ (Homo sapiens (Human), UniProt Q13574); experiment: Biochemical DGK IC50 assay, DGKζ ADP-Glo assay; conditions: 0.5 nM enzyme, 140 μM ATP, 80 μM DAG
Sequence of DGKζ (Q13574 other isoform, or with tags, fused parts or gaps): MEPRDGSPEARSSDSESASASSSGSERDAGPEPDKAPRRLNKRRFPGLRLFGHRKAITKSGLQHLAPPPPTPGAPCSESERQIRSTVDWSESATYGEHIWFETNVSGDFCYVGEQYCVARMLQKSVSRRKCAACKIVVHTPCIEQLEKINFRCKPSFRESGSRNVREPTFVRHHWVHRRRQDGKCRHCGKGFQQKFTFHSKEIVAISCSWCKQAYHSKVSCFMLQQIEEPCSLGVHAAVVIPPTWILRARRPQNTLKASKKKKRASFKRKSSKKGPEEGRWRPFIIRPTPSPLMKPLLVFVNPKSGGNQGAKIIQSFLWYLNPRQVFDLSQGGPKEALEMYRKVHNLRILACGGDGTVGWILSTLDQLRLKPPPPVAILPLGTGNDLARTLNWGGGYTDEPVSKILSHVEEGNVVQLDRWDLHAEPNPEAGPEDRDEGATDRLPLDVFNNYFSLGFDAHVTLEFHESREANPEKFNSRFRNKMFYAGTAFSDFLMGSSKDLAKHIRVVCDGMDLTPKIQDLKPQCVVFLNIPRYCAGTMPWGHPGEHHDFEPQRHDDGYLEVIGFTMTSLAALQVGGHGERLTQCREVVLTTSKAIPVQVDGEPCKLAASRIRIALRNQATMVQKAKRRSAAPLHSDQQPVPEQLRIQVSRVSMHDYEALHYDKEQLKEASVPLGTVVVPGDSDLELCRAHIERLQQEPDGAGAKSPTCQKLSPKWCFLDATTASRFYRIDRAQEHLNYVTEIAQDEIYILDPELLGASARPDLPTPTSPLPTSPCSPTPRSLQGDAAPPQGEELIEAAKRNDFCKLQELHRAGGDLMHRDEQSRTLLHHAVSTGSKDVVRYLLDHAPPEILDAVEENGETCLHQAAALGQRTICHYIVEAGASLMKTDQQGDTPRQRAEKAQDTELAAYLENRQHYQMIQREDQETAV
Summary of the method: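 ADP formation measured by ADP-Glo luminescence, with test compounds at final 1.55–10000 nM or 23.3–150000 nM. Enzyme: purified full-length human DGKζ from Sf9 insect cells; substrate: DAG/PS micelles in 25 mM HEPES pH 7.0, 0.5 mM EDTA, octyl glucoside.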

[1] = read-out: DGKζ ADP-Glo assay IC50

Sequence of DGKα (P23743 whole entry): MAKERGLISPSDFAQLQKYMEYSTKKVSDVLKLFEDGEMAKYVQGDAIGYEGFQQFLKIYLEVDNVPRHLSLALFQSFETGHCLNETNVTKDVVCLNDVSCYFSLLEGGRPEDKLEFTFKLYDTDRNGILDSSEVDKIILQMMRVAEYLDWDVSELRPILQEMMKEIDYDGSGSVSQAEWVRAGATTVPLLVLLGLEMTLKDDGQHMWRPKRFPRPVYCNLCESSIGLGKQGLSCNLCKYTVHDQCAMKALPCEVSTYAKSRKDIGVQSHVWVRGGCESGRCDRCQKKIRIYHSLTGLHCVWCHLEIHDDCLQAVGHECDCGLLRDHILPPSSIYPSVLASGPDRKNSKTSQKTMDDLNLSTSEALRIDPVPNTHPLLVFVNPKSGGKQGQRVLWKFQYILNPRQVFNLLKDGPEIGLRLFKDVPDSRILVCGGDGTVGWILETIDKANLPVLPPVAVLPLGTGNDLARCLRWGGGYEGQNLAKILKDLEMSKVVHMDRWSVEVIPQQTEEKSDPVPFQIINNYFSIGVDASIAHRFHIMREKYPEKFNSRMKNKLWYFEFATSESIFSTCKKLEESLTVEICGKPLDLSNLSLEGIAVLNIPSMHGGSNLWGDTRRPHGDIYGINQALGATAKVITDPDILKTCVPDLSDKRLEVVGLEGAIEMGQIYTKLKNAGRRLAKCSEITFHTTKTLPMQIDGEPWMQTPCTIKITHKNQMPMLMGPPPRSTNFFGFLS

IC50 (DGKα) [µM] | IC50 (DGKζ; [1]) [nM] | Structure (SMILES) | IC50 (DGKζ; DGKζ ADP-Glo assay IC50(nM)) [nM]
7.42 | > 10000 | CC[C@@H]1CN(c2cc(=O)n(C)c3cn(CC(F)F)nc23)[C@@H](C)CN1C(C)c1ccc2nccnc2c1 (single isomer, unassigned) [Compound A222b] | –
0.15 | 4300 | C=C(C)n1cc2c(n1)c(N1C[C@@H](C)N(C(C)c3ccc4nccnc4c3)C[C@@H]1C)cc(=O)n2C (stereo partly drawn) [Compound A24, 7-((2S,5R)-2,5-dimethyl-4-(1-(quinoxalin-6-yl)ethyl)piperazin-1-yl)-4-methyl-2-(prop-1-en-2-yl)-2,4-dihydro-5H-pyrazolo[4,3-b]pyridin-5-one] | –
5.9 | 3700 | CC(c1ccc2nccnc2c1)N1C[C@H](C)N(c2cc(=O)n(C)c3cn(S(C)(=O)=O)nc23)C[C@H]1C (stereo partly shown) [Compound A13] | –
0.206 | 602 | CC[C@H]1CN(C(C)c2ccc(OCC3CCOC3)cc2)[C@H](CC)CN1c1cc(=O)n(C)c2cn(CC#N)nc12 (stereo partly shown) [Compound A376] | –
23 | 110 | COCc1cc(F)ccc1C(C)N1C[C@H](C)N(c2cc(=O)n(C)c3cn(CC#N)nc23)C[C@H]1C (stereo partly drawn) [Compound A29, 2-(7-((2S,5R)-4-(1-(4-fluoro-2-(methoxymethyl)phenyl)ethyl)-2,5-dimethylpiperazin-1-yl)-4-methyl-5-oxo-4,5-dihydro-2H-pyrazolo[4,3-b]pyridin-2-yl)acetonitrile] | –
0.2 | 944 | CC[C@H]1CN(C(C)c2ccc(OC3CCOC3)cc2)[C@H](CC)CN1c1cc(=O)n(C)c2cn(CC#N)nc12 (stereo partly drawn) [Compound A375, 2-(7-((2S,5R)-2,5-diethyl-4-(1-(4-((tetrahydrofuran-3-yl)oxy)phenyl)ethyl)piperazin-1-yl)-4-methyl-5-oxo-4,5-dihydro-2H-pyrazolo[4,3-b]pyridin-2-yl)acetonitrile] | –
4.12 | 4160 | CC[C@H]1CN(C2CCc3ccccc32)[C@H](CC)CN1c1cc(=O)n(C)c2cn(CC#N)nc12 (single isomer, unassigned) [Compound A149a] | –
108 | 880 | CC(c1ccc2ncc(CO)nc2c1)N1C[C@H](C)N(c2cc(=O)n(C)c3cn(CC#N)nc23)C[C@H]1C (stereo partly drawn) [Compound A309, 2-(7-((2S,5R)-4-(1-(3-(hydroxymethyl)quinoxalin-6-yl)ethyl)-2,5-dimethylpiperazin-1-yl)-4-methyl-5-oxo-4,5-dihydro-2H-pyrazolo[4,3-b]pyridin-2-yl)acetonitrile] | –
9.72 | 1070 | C[C@@H]1CN(c2cc(=O)n(C)c3cn(CC#N)nc23)[C@@H](C)CN1Cc1ccc(F)cc1C(F)(F)F [Compound A246] | –
2.52 | 288 | CC[C@H]1CN(C(C)c2ccc(C)c(OC)n2)[C@H](CC)CN1c1cc(=O)n(C)c2cn(CC#N)nc12 (stereo partly shown) [Compound A364] | –
0.0105 | 635 | CC[C@H]1CN(C(C)c2ccc(OC(F)(F)F)cc2)[C@H](CC)CN1c1cc(=O)n(C)c2cn(CC#N)nc12 (stereo partly shown) [Compound A122] | –
0.797 | 2490 | CC[C@H]1CN(C(C)c2ccc(F)nc2)[C@H](CC)CN1c1cc(=O)n(C)c2cn(CC#N)nc12 (single isomer, unassigned) [Compound A353b] | –
10.7 | 7 | CC(c1ccc2c(c1)OC1(CC1)CO2)N1C[C@H](C)N(c2cc(=O)n(C)c3cn(CC#N)nc23)C[C@H]1C (stereo partly drawn) [Compound A323, 2-(7-((2S,5R)-4-(1-(3H-spiro[benzo[b][1,4]dioxine-2,1′-cyclopropan]-7-yl)ethyl)-2,5-dimethylpiperazin-1-yl)-4-methyl-5-oxo-4,5-dihydro-2H-pyrazolo[4,3-b]pyridin-2-yl)acetonitrile] | –
> 10 | 272 | CC[C@H]1CN(C(C)c2ccccc2COC)[C@H](CC)CN1c1cc(=O)n(C)c2cn(CC#N)nc12 (stereo partly shown) [Compound A107] | –
0.203 | 283 | CC[C@H]1CN(C(C)c2ccc3c(n2)OCC3)[C@H](CC)CN1c1cc(=O)n(C)c2cn(CC#N)nc12 (stereo partly drawn) [Compound A337, 2-(7-((2S,5R)-4-(1-(2,3-dihydrofuro[2,3-b]pyridin-6-yl)ethyl)-2,5-diethylpiperazin-1-yl)-4-methyl-5-oxo-4,5-dihydro-2H-pyrazolo[4,3-b]pyridin-2-yl)acetonitrile] | –
0.454 | 5400 | CC#CCn1cc2c(n1)c(N1C[C@@H](CC)N(C(C)c3cnc4ccccc4n3)C[C@@H]1C)cc(=O)n2C (single isomer, unassigned) [Compound A394a] | –
3.66 | 763 | Cc1cc2cc(C(C)N3C[C@H](C)N(c4cc(=O)n(C)c5cn(CC#N)nc45)C[C@H]3C)ccc2cn1 (mixture of isomers) [Compound A304, 2-(7-((2S,5R)-2,5-dimethyl-4-(1-(3-methylisoquinolin-6-yl)ethyl)piperazin-1-yl)-4-methyl-5-oxo-4,5-dihydro-2H-pyrazolo[4,3-b]pyridin-2-yl)acetonitrile] | –
26 | 34 | CC(c1ccc2ncc(Cl)nc2c1)N1C[C@H](C)N(c2cc(=O)n(C)c3cn(CC#N)nc23)C[C@H]1C (stereo partly drawn) [Compound A280, 2-(7-((2S,5R)-4-(1-(3-chloroquinoxalin-6-yl)ethyl)-2,5-dimethylpiperazin-1-yl)-4-methyl-5-oxo-4,5-dihydro-2H-pyrazolo[4,3-b]pyridin-2-yl)acetonitrile] | –
> 150 | 24000 | CCS(=O)(=O)N1CC(CC#N)(n2cc3c(n2)c(N2C[C@@H](C)N(C(C)c4ccc5nccnc5c4)C[C@@H]2C)cc(=O)n3C)C1 (stereo partly drawn) [Compound A19, 2-(3-(7-((2S,5R)-2,5-dimethyl-4-(1-(quinoxalin-6-yl)ethyl)piperazin-1-yl)-4-methyl-5-oxo-4,5-dihydro-2H-pyrazolo[4,3-b]pyridin-2-yl)-1-(ethylsulfonyl)azetidin-3-yl)acetonitrile] | –
0.245 | 158 | CC[C@H]1CN(C(C)c2ccc(CN3CCOCC3)cc2)[C@H](CC)CN1c1cc(=O)n(C)c2cn(CC#N)nc12 (single isomer, unassigned) [Compound A383a] | –
88.3 | 72 | Cc1cnc2ccc([C@H](C)N3C[C@H](C)N(c4cc(=O)[nH]c5cn(CC#N)nc45)C[C@H]3C)cc2n1 [Compound A308] | –
> 10 | 2190 | CC[C@H]1CN(C(C)c2ccccc2OC)[C@H](CC)CN1c1cc(=O)n(C)c2cn(CC#N)nc12 (single isomer, unassigned) [Compound A106a] | –
1.75 | 18 | CC[C@@H]1CN(c2c(C#N)c(=O)n(C)c3cn(CC#N)nc23)[C@@H](C)CN1C(C)c1ccc2nccnc2c1 (stereo partly drawn) [Compound A156, 2-(cyanomethyl)-7-((2S,5R)-5-ethyl-2-methyl-4-(1-(quinoxalin-6-yl)ethyl)piperazin-1-yl)-4-methyl-5-oxo-4,5-dihydro-2H-pyrazolo[4,3-b]pyridine-6-carbonitrile] | –
105 | 378 | CC[C@H]1CN(C(C)c2ccc(C)cc2C(F)(F)F)[C@H](CC)CN1c1cc(=O)n(C)c2cn(CC#N)nc12 (single isomer, unassigned) [Compound A115b] | –
3.2 | 3800 | CC(c1ccc2nccnc2c1)N1C[C@H](C)N(c2cc(=O)n(C)c3cn(C)nc23)C[C@H]1C (stereo partly shown) [Compound A3] | –
0.052 | 247 | CC[C@H]1CN(C(C)c2ccc(OC(C)C)cc2)[C@H](CC)CN1c1cc(=O)n(C)c2cn(CC#N)nc12 (stereo partly shown) [Compound A160] | –

Structure (SMILES) | IC50 (DGKα) [µM] | IC50 (DGKζ; [1]) [nM] | IC50 (DGKζ; DGKζ ADP-Glo assay IC50(nM)) [nM]
Cc1cnc2cc([C@H](C)N3C[C@H](C)N(c4cc(=O)n(C)c5cn(CC#N)nc45)C[C@H]3C)ccc2n1 (single isomer, unassigned) [Compound A269a, 2-(7-((2S,5R)-2,5-dimethyl-4-((S)-1-(2-methylquinoxalin-6-yl)ethyl)piperazin-1-yl)-4-methyl-5-oxo-4,5-dihydro-2H-pyrazolo[4,3-b]pyridin-2-yl)acetonitrile, or 2-(7-((2S,5R)-2,5-dimethyl-4-((R)-1-(2-methylquinoxalin-6-yl)ethyl)piperazin-1-yl)-4-methyl-5-oxo-4,5-dihydro-2H-pyrazolo[4,3-b]pyridin-2-yl)acetonitrile] | > 10 | 365 | –
C[C@@H]1CN(c2cc(=O)n(C)c3c(F)nn(CC#N)c23)[C@@H](C)CN1[C@H](C)c1ccc2nccnc2c1 [Compound A258, 2-(7-((2S,5R)-2,5-dimethyl-4-((R)-1-(quinoxalin-6-yl)ethyl)piperazin-1-yl)-3-fluoro-4-methyl-5-oxo-4,5-dihydro-1H-pyrazolo[4,3-b]pyridin-1-yl)acetonitrile, or 2-(7-((2S,5R)-2,5-dimethyl-4-((S)-1-(quinoxalin-6-yl)ethyl)piperazin-1-yl)-3-fluoro-4-methyl-5-oxo-4,5-dihydro-1H-pyrazolo[4,3-b]pyridin-1-yl)acetonitrile] | > 10 | > 10000 | –
[2H]c1nc2ccc(C(C)N3C[C@H](C)N(c4cc(=O)n(C)c5cn(CC#N)nc45)C[C@H]3C)cc2nc1[2H] (stereo partly drawn) [Compound A268, 2-(7-((2S,5R)-2,5-dimethyl-4-(1-(quinoxalin-6-yl-2,3-d2)ethyl)piperazin-1-yl)-4-methyl-5-oxo-4,5-dihydro-2H-pyrazolo[4,3-b]pyridin-2-yl)acetonitrile] | 16.3 | – | 133

From patent US20240270751A1, “Pyrazolopyridinone Compounds” (BeiGene Ltd., priority 2021, published 2024)
